How the values were obtained:
[1] = target: Serine/threonine-protein kinase PAK 3 (Homo sapiens, UniProt O75914); assay: Inhibition of PAK3-mediated MEK1 phosphorylation at Ser298 in human EBC1 cells after 2 hrs by HTRF assay; type: cell-based; details: pooled result: one value given for 3 cell lines, strains, targets or settings
[2] = target: Serine/threonine-protein kinase PAK 1 (Homo sapiens, UniProt Q13153); assay: Inhibition of human recombinant GST-tagged PAK1 kinase domain-mediated 5FAM-RRRLSFAEPG phosphorylation expressed in Sf9 cells preincubated for 10 mins prior to substrate addition measured after 30 mins by microfluidic mobility shift assay
Sequence of Serine/threonine-protein kinase PAK 1 (Q13153 whole entry, the tested form may be a part): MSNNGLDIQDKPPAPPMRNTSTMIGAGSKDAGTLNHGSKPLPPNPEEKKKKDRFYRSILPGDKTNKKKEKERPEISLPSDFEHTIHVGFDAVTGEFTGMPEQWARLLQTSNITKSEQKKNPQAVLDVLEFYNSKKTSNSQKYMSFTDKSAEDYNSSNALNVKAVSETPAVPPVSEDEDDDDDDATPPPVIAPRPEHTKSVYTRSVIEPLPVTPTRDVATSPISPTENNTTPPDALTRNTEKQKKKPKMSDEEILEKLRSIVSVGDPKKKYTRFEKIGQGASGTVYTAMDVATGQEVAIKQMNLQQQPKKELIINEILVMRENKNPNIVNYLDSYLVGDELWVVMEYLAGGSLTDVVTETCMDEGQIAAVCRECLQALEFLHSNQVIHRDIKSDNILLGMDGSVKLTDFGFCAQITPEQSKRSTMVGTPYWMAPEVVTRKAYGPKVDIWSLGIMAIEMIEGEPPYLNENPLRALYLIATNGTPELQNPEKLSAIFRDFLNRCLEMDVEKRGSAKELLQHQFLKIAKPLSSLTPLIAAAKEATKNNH

Sequence of Serine/threonine-protein kinase PAK 3 (O75914 whole entry, the tested form may be a part): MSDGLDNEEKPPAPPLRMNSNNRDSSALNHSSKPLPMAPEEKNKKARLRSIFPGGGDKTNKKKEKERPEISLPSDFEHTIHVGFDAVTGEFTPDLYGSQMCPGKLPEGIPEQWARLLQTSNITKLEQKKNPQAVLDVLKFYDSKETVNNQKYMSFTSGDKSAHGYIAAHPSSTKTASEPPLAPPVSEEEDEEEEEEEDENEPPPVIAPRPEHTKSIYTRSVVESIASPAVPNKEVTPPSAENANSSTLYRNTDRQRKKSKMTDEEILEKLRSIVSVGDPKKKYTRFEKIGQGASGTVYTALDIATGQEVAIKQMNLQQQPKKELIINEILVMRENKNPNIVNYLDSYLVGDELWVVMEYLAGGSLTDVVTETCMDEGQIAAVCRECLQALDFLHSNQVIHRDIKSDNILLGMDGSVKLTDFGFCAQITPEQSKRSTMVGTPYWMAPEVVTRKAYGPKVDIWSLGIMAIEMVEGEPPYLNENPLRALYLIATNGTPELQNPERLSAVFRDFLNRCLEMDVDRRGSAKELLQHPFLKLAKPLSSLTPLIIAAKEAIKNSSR

Row | IC50 [1] [nM] | Ki [2] [nM] | Compound
1 | 133 |  | C[C@H](Nc1nccc(Nc2cc(C3CCC3)[nH]n2)n1)c1ccc2[nH]ccc2c1
2 | 64.1 |  | COCCN(Cc1cc(F)cc2[nH]ncc12)c1nccc(Nc2cc(C3CC3)[nH]n2)n1
3 | 244 | 5.13 | C[C@H](Nc1nccc(Nc2cc(C3CC3(F)F)[nH]n2)n1)c1ccc2[nH]cnc2c1 (stereo not given in full)
4 | 70.8 |  | CC(CO)N(Cc1cc(F)cc2[nH]ncc12)c1nccc(Nc2cc(C3CC3)[nH]n2)n1 (stereo not given)
